From US11053204B2, “Pyrimidinyloxy benzene derivatives as herbicides” (FMC Corporation, priority 2015, dated 2021)

Legend:
Format in all cases: in vivo
[1] = tested on: Italian ryegrass (Lolium multiflorum); experiment: Test A postemergence, visual injury rating; conditions: 0 is no effect, 100 is complete control
Procedure, shortened: (§1)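 Compounds in non-phytotoxic solvent with surfactant applied as soil spray preemergence, or postemergence to plants 2-10 cm at one- to two-leaf stage, in loam/sand. After approximately 10 days in greenhouse, injury rated visually versus untreated controls, 0 (no effect) to 100 (complete control).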

[2] = tested on: wheat (Triticum aestivum); experiment: Test A postemergence, visual injury rating; conditions: 0 is no effect, 100 is complete control
Procedure, shortened: as §1

[3] = tested on: kochia (Kochia scoparia); experiment: Test A postemergence, visual injury rating; conditions: 0 is no effect, 100 is complete control
Procedure, shortened: as §1

[4] = tested on: giant foxtail (Setaria faberii); experiment: Test A postemergence, visual injury rating; conditions: 0 is no effect, 100 is complete control
Procedure, shortened: as §1

[5] = tested on: galium (catchweed bedstraw, Galium aparine); experiment: Test A postemergence, visual injury rating; conditions: 0 is no effect, 100 is complete control
Procedure, shortened: as §1

[6] = tested on: ragweed (common ragweed, Ambrosia elatior); experiment: Test A postemergence, visual injury rating; conditions: 0 is no effect, 100 is complete control
Procedure, shortened: as §1

[7] = tested on: pigweed (Amaranthus retroflexus); experiment: Test A postemergence, visual injury rating; conditions: 0 is no effect, 100 is complete control
Procedure, shortened: as §1

[8] = tested on: corn (Zea mays); experiment: Test A postemergence, visual injury rating; conditions: 0 is no effect, 100 is complete control
Procedure, shortened: as §1

[9] = tested on: barnyardgrass (Echinochloa crus-galli); experiment: Test A postemergence, visual injury rating; conditions: 0 is no effect, 100 is complete control
Procedure, shortened: as §1

[10] = tested on: blackgrass (Alopecurus myosuroides); experiment: Test A postemergence, visual injury rating; conditions: 0 is no effect, 100 is complete control
Procedure, shortened: as §1

[11] = tested on: sedge, umbrella (small-flower umbrella sedge, Cyperus difformis); experiment: Test B flooded paddy test, plant response rating; conditions: 250 g ai/ha; Flood; scale of 0 to 100 where 0 is no effect and 100 is complete control; 13 to 15 days
Procedure, shortened: (§2)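 Pots were flooded to 3 cm above the soil surface at treatment, compound applied directly to the paddy water, and that depth held throughout. Plants were kept in a greenhouse for 13 to 15 days, then visually rated against untreated controls.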

[12] = tested on: ducksalad (Heteranthera limosa); experiment: Test B flooded paddy test, plant response rating; conditions: 250 g ai/ha; Flood; scale of 0 to 100 where 0 is no effect and 100 is complete control; 13 to 15 days
Procedure, shortened: as §2

[13] = tested on: rice (Oryza sativa); experiment: Test B flooded paddy test, plant response rating; conditions: 250 g ai/ha; Flood; scale of 0 to 100 where 0 is no effect and 100 is complete control; 13 to 15 days
Procedure, shortened: as §2

[14] = tested on: barnyardgrass (Echinochloa crus-galli); experiment: Test B flooded paddy test, plant response rating; conditions: 250 g ai/ha; Flood; scale of 0 to 100 where 0 is no effect and 100 is complete control; 13 to 15 days
Procedure, shortened: as §2

[15] = tested on: Italian ryegrass (Lolium multiflorum); experiment: Test A preemergence, visual injury rating; conditions: for Ryegrass, Italian plant response rating: 0 to 100 scale (0 no effect, 100 complete control)
Procedure, shortened: as §1

[16] = tested on: kochia (Kochia scoparia); experiment: Test A preemergence, visual injury rating; conditions: for Kochia plant response rating: 0 to 100 scale (0 no effect, 100 complete control)
Procedure, shortened: as §1

[17] = tested on: giant foxtail (Setaria faberii); experiment: Test A preemergence, visual injury rating; conditions: for Foxtail, Giant plant response rating: 0 to 100 scale (0 no effect, 100 complete control)
Procedure, shortened: as §1

[18] = tested on: ragweed (common ragweed, Ambrosia elatior); experiment: Test A preemergence, visual injury rating; conditions: for Ragweed plant response rating: 0 to 100 scale (0 no effect, 100 complete control)
Procedure, shortened: as §1

[19] = tested on: pigweed (Amaranthus retroflexus); experiment: Test A preemergence, visual injury rating; conditions: for Pigweed plant response rating: 0 to 100 scale (0 no effect, 100 complete control)
Procedure, shortened: as §1

[20] = tested on: barnyardgrass (Echinochloa crus-galli); experiment: Test A preemergence, visual injury rating; conditions: for Barnyardgrass plant response rating: 0 to 100 scale (0 no effect, 100 complete control)
Procedure, shortened: as §1

[21] = 31 g ai/ha, 0 to 100 scale, approximately 10 days
[22] = 31 g ai/ha, 0 to 100 scale, 0 no effect, 100 complete control

N#Cc1ccc(Oc2ncc(Cl)cn2)c(C(=O)OCCC(F)(F)F)c1 [Compound 64]
0: Ryegrass, Italian plant response rating (0 to 100 scale) ([1]; 125 g ai/ha) | Ryegrass, Italian plant response rating (0 to 100 scale) ([1]; 500 g ai/ha) | Wheat plant response rating (0 to 100 scale) ([2]; 125 g ai/ha) | Wheat plant response rating (0 to 100 scale) ([2]; 500 g ai/ha) | Kochia plant response rating (0 to 100 scale) ([3]; 125 g ai/ha) | Kochia plant response rating (0 to 100 scale) ([3]; 500 g ai/ha) | Foxtail, Giant plant response rating (0 to 100 scale) ([4]; 125 g ai/ha) | Foxtail, Giant plant response rating (0 to 100 scale) ([4]; 500 g ai/ha) | Galium plant response rating (0 to 100 scale) ([5]; 125 g ai/ha) | Galium plant response rating (0 to 100 scale) ([5]; 500 g ai/ha) | Ragweed plant response rating (0 to 100 scale) ([6]; 125 g ai/ha) | Ragweed plant response rating (0 to 100 scale) ([6]; 500 g ai/ha) | Pigweed plant response rating (0 to 100 scale) ([7]; 125 g ai/ha) | Pigweed plant response rating (0 to 100 scale) ([7]; 500 g ai/ha) | Corn plant response rating (0 to 100 scale) ([8]; 125 g ai/ha) | Corn plant response rating (0 to 100 scale) ([8]; 500 g ai/ha) | Barnyardgrass plant response rating (0 to 100 scale) ([9]; 125 g ai/ha) | Barnyardgrass plant response rating (0 to 100 scale) ([9]; 500 g ai/ha) | Blackgrass plant response rating (0 to 100 scale) ([10]; 125 g ai/ha) | Blackgrass plant response rating (0 to 100 scale) ([10]; 500 g ai/ha) | Plant response rating, Sedge, Umbrella [11] | Plant response rating, Ducksalad [12] | Plant response rating, Rice [13] | Plant response rating, Barnyardgrass [14] | Ryegrass, Italian plant response rating ([15]; 125 g ai/ha) | Ryegrass, Italian plant response rating ([15]; 500 g ai/ha) | Kochia plant response rating ([16]; 125 g ai/ha) | Kochia plant response rating ([16]; 500 g ai/ha) | Foxtail, Giant plant response rating ([17]; 125 g ai/ha) | Foxtail, Giant plant response rating ([17]; 500 g ai/ha) | Ragweed plant response rating ([18]; 125 g ai/ha) | Ragweed plant response rating ([18]; 500 g ai/ha) | Pigweed plant response rating ([19]; 125 g ai/ha) | Pigweed plant response rating ([19]; 500 g ai/ha) | Barnyardgrass plant response rating ([20]; 125 g ai/ha) | Barnyardgrass plant response rating ([20]; 500 g ai/ha)

CCCC(=O)c1c(C#N)cccc1Oc1ncc(Cl)cn1 [Compound 67]
0: Ryegrass, Italian plant response rating [1, 21] | Ryegrass, Italian plant response rating (0 to 100 scale) ([1]; 125 g ai/ha) | Wheat plant response rating [2, 21] | Wheat plant response rating (0 to 100 scale) ([2]; 125 g ai/ha) | Kochia plant response rating [3, 21] | Kochia plant response rating (0 to 100 scale) ([3]; 125 g ai/ha) | Foxtail, Giant plant response rating [4, 21] | Foxtail, Giant plant response rating (0 to 100 scale) ([4]; 125 g ai/ha) | Galium plant response rating [5, 21] | Galium plant response rating (0 to 100 scale) ([5]; 125 g ai/ha) | Ragweed plant response rating [6, 21] | Ragweed plant response rating (0 to 100 scale) ([6]; 125 g ai/ha) | Pigweed plant response rating [7, 21] | Pigweed plant response rating (0 to 100 scale) ([7]; 125 g ai/ha) | Corn plant response rating [8, 21] | Corn plant response rating (0 to 100 scale) ([8]; 125 g ai/ha) | Barnyardgrass plant response rating [9, 21] | Barnyardgrass plant response rating (0 to 100 scale) ([9]; 125 g ai/ha) | Blackgrass plant response rating [10, 21] | Blackgrass plant response rating (0 to 100 scale) ([10]; 125 g ai/ha) | Plant response rating, Sedge, Umbrella [11] | Plant response rating, Ducksalad [12] | Plant response rating, Rice [13] | Plant response rating, Barnyardgrass [14] | Plant response rating, Ryegrass, Italian [15, 22] | Ryegrass, Italian plant response rating ([15]; 125 g ai/ha) | Plant response rating, Kochia [16, 22] | Kochia plant response rating ([16]; 125 g ai/ha) | Plant response rating, Foxtail, Giant [17, 22] | Foxtail, Giant plant response rating ([17]; 125 g ai/ha) | Plant response rating, Ragweed [18, 22] | Ragweed plant response rating ([18]; 125 g ai/ha) | Plant response rating, Pigweed [19, 22] | Pigweed plant response rating ([19]; 125 g ai/ha) | Plant response rating, Barnyardgrass [20, 22] | Barnyardgrass plant response rating ([20]; 125 g ai/ha)
